Where “and” joins values, the source holds several entries; their conditions need not be identical. Identical values can stand only once. Like-named read-outs stand apart in the source and are kept apart here.
Legend:
P. falciparum Dd2-2D4 = assay: P. falciparum asexual blood stage (ABS) growth assay, SYBR Green, 72 h, wild-type parasites; format: cell-based, Plasmodium falciparum
Procedure: Parasites were maintained under standard culture conditions as described previously[56],[57]. […] The P. falciparum Dd2 cell lines used in this study (Dd2-2D4, halofuginone-induced, and HFGR-I) have previously undergone whole genome sequencing in our labs.
This assay was performed as previously described[8]. In short, P. falciparum erythrocytic-stage parasites at 1% parasitemia and 1% hematocrit in RPMI + 0.5% Albumax were seeded at 40 μL/well in 384-well plates with test compounds in triplicate, dose-response format with 10 μM dihydroartemisinin as a kill-control and blank (no compound) wells as a growth-control. […] After 72 h, growth was quantified by measuring fluorescence (Molecular Devices SpectraMax iD5) following SYBR Green 1 staining. Data were analyzed in Excel and plotted in PRISM (V. 8.4.3–9.1.0, GraphPad).

PfcProRS = target: T1, PfcProRS (Plasmodium falciparum, UniProt Q8I5R7); format: binding; settings: for Normalized response, dose-response replicates (SI Fig 14): replicates 1-3; for PfcProRS -- best Kd: SI Fig 16a, values on -log scale
T1 construct: made in house; host or cells: E. coli SoluBL-21
T1 sequence (Q8I5R7 249-746): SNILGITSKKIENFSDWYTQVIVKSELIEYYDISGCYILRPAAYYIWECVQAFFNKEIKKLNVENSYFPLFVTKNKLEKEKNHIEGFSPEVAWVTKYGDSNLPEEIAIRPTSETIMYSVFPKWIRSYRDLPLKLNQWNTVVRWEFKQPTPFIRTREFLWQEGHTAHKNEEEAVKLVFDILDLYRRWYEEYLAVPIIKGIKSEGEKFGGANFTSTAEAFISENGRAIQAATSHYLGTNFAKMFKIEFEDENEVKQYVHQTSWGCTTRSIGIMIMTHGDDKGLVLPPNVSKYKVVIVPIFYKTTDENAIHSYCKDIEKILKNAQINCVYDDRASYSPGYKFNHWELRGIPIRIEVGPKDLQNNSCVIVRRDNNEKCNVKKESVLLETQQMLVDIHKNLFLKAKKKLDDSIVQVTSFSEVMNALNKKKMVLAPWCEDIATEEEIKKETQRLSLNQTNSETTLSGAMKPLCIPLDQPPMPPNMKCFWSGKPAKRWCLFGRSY

HsProRS = HsProRS (Homo sapiens, UniProt P07814); assay: TR-FRET ligand displacement assay with tracer MAT379 (CoraFluor-1-Halo and anti-His6 antibody formats); format: binding; set-up: made in house; host or cells: E. coli SoluBL-21
Chain of HsProRS (P07814 996-1512): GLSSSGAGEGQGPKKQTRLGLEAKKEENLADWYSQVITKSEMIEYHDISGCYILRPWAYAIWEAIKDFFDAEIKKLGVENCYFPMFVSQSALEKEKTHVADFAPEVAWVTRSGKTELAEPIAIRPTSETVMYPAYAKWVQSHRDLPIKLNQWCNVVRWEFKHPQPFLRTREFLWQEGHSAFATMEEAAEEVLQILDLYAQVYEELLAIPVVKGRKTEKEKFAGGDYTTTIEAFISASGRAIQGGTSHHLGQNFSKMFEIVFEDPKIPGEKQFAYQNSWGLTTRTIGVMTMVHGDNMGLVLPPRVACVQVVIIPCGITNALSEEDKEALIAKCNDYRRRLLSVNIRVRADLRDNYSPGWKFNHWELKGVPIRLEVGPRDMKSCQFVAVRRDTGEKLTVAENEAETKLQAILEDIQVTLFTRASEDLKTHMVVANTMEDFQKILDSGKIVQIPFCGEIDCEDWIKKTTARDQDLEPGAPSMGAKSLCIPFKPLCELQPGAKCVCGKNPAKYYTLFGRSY

[1] = HsProRS (KD [nM]) mean, no added proline/ATP (-)

Row | Compound | Normalized response, dose-response replicates (SI Fig 14) (PfcProRS; Log[inhibitor] (M) -5.000) | Normalized response, dose-response replicates (SI Fig 14) (PfcProRS; Log[inhibitor] (M) -5.301) | Normalized response, dose-response replicates (SI Fig 14) (PfcProRS; Log[inhibitor] (M) -5.601) | Normalized response, dose-response replicates (SI Fig 14) (PfcProRS; Log[inhibitor] (M) -5.904) | Normalized response, dose-response replicates (SI Fig 14) (PfcProRS; Log[inhibitor] (M) -6.208) | Normalized response, dose-response replicates (SI Fig 14) (PfcProRS; Log[inhibitor] (M) -6.509) | Normalized response, dose-response replicates (SI Fig 14) (PfcProRS; Log[inhibitor] (M) -6.796) | Normalized response, dose-response replicates (SI Fig 14) (PfcProRS; Log[inhibitor] (M) -7.108) | Normalized response, dose-response replicates (SI Fig 14) (PfcProRS; Log[inhibitor] (M) -7.409) | Normalized response, dose-response replicates (SI Fig 14) (PfcProRS; Log[inhibitor] (M) -7.710) | Normalized response, dose-response replicates (SI Fig 14) (PfcProRS; Log[inhibitor] (M) -8.000) | Normalized response, dose-response replicates (SI Fig 14) (PfcProRS; Log[inhibitor] (M) -8.301) | Normalized response, dose-response replicates (SI Fig 14) (PfcProRS; Log[inhibitor] (M) -8.602) | Normalized response, dose-response replicates (SI Fig 14) (PfcProRS; Log[inhibitor] (M) -9.000) | Normalized response, dose-response replicates (SI Fig 14) (PfcProRS; Log[inhibitor] (M) -9.301) | PfcProRS -- best Kd (PfcProRS) | Kd (HsProRS; [1]) [nM] | other results
1 | CC(C)(C)OC(=O)NCCCCCC(=O)NCC1CCN(C(=O)Nc2nccnc2C(=O)NC2Cc3ccccc3C2)CC1 [compound 43] | 3.94E-01 and 2.57E-01 and 2.74E-01 | 4.70E-01 and 4.27E-01 and 4.95E-01 | 6.21E-01 and 6.23E-01 and 5.88E-01 | 7.25E-01 and 7.36E-01 and 7.34E-01 | 8.39E-01 and 7.98E-01 and 7.48E-01 | 9.01E-01 and 9.26E-01 and 9.21E-01 | 8.44E-01 and 9.34E-01 and 8.61E-01 | 8.07E-01 and 9.41E-01 and 7.86E-01 | 8.06E-01 and 8.12E-01 and 9.38E-01 | 9.31E-01 and 8.84E-01 and 7.70E-01 | 9.59E-01 and 9.87E-01 and 9.57E-01 | 1.01E+00 and 8.79E-01 and 9.74E-01 | 9.04E-01 and 9.28E-01 and 9.93E-01 | 8.86E-01 and 8.79E-01 and 9.68E-01 | 8.43E-01 and 8.23E-01 and 8.26E-01 | 6.495 | 611 | EC50 (P. falciparum Dd2-2D4; Plasmodium falciparum, DD2, SI Fig 16b, values on -log scale, read-out: ABS - Dd2-2D4 (converted)): 3.33 µM; Kd (HsProRS; HsProRS (KD [nM]) + 100 μM proline mean, + 100 μM proline): 2280 nM
2 | NCCCCCC(=O)NCC1CCN(C(=O)Nc2nccnc2C(=O)NC2Cc3ccccc3C2)CC1 [compound 44] | 5.04E-02 and 6.61E-02 and 1.21E-01 | 2.04E-01 and 9.30E-02 and 7.91E-02 | 1.77E-01 and 2.33E-01 and 2.91E-01 | 3.70E-01 and 3.87E-01 and 3.95E-01 | 5.30E-01 and 6.18E-01 and 4.52E-01 | 5.98E-01 and 6.58E-01 and 5.97E-01 | 8.14E-01 and 8.03E-01 and 8.36E-01 | 7.21E-01 and 9.08E-01 and 7.69E-01 | 9.22E-01 and 9.63E-01 and 8.84E-01 | 9.26E-01 and 9.41E-01 and 9.94E-01 | 9.86E-01 and 9.96E-01 and 9.45E-01 | 1.01E+00 and 1.07E+00 and 1.09E+00 | 1.05E+00 and 9.10E-01 and 8.68E-01 | 8.54E-01 and 1.03E+00 and 1.01E+00 | 1.02E+00 and 8.64E-01 and 7.91E-01 | 6.569 | 1570 | % signal at 10 μM, wildtype (Dd2-2D4) (P. falciparum Dd2-2D4; wildtype (Dd2-2D4), 10 μM): 51.4%; Kd (HsProRS; HsProRS - best Kd, SI Fig 16a, values on -log scale): 330 nM

Source: publication PMC9403976, “Elucidating the path to Plasmodium prolyl-tRNA synthetase inhibitors that overcome halofuginone resistance” (Nature Communications, 2022)
